This is an account of results in PubChem BioAssay AID437 (SGCStoCompounds, 2006).

This experiment concerns the target Inositol-trisphosphate 3-kinase C (Homo sapiens) (UniProt Q96DU7). The experiment can be described thus: IP3 3-kinase C ligand binding via Tm shift – biophysical, DSF, SYPRO orange, purified human protein (AID 437). The settings on record: DSF thermal shift, at 20 µM, protein 5.9 µM, buffer 300 mM NaCl, 50 mM Hepes, 10% glycerol, 2 mM TCEP pH 7.5, hits give high values.

Inositol-trisphosphate 3-kinase C (Homo sapiens), sequence (Q96DU7 whole entry, looked up): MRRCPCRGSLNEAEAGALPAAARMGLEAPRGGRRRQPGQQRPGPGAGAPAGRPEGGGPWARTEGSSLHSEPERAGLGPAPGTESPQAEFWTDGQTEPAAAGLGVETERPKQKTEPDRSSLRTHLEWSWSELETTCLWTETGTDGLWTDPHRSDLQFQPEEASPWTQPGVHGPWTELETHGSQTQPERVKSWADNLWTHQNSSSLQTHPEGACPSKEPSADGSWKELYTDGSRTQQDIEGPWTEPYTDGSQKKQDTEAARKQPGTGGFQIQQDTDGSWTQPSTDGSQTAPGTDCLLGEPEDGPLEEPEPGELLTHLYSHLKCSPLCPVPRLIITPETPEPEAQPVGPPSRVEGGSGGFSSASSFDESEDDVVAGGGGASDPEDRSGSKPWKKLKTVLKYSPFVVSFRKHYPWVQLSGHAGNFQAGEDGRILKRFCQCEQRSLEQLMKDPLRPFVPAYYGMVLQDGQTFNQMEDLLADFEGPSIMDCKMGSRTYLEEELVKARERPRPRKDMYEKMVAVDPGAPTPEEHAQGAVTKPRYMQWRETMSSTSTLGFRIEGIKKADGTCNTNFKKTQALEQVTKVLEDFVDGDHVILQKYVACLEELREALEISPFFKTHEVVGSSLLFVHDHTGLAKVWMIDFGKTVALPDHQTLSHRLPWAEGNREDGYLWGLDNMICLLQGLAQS

Take `NC1=N/C(=C2/CCNC(=O)c3[nH]c(Br)cc32)C(=O)N1`: the Tm shift is 3 Celsius.
The value for `O=C1Cc2c([nH]c3ccc(Br)cc23)-c2ccccc2N1` was 3.1 Celsius; that for `CC(C)(C)c1nc2c3cc[nH]c(=O)c3c3cc(F)ccc3c2[nH]1` was 3.3 Celsius.
For the compound `C=S(C)c1ccc(CSc2nc(-c3ccc(F)cc3)c(-c3ccncc3)[nH]2)cc1` (configuration not stated), the Tm shift is 5.6 Celsius.
The value for `O=c1c(-c2ccc(O)cc2)coc2cc(O)cc(O)c12` was 3.3 Celsius.
On to `COC1=CC(/C=C/C(=O)CC(=O)/C=C/c2ccc(O)c(OC)c2)=CCC1O` (configuration not stated), for which the Tm shift is 6.6 Celsius.
The value for `O=C1Nc2ccc(I)cc2/C1=C/c1cc(Br)c(O)c(Br)c1` was 10.4 Celsius.
Turning to `CCOc1cc(/C=C(\C#N)CON)cc(CSc2ccccc2)c1O`, the Tm shift was 4.2 Celsius.
Turning to `O=C1c2c(O)cc(O)cc2OC(c2ccc(O)c(O)c2)C1O` (configuration not stated), the Tm shift was 13.3 Celsius.
As to `Oc1ccc(-c2nc(-c3ccc(F)cc3)c(-c3ccncc3)[nH]2)cc1`, the Tm shift was 4.4 Celsius.
With `NC(O)(O)c1ccc(N=Nc2c(O)[nH]c3ccc(Cl)cc23)cc1`, the Tm shift is 3.7 Celsius.
Regarding `NC1=CC2N=CN=C(Nc3cccc(Br)c3)C2C=C1N` (configuration not stated), the Tm shift was 5.2 Celsius.
The value for `CNC(=O)c1cc(Oc2ccc(NC(=O)Nc3ccc(C)c(C(F)(F)F)c3)cc2)ccn1` was 5.7 Celsius; that for `CN(C)S(O)(O)c1ccc2c(c1)/C(=C/c1cc3c([nH]1)CCCC3)C(=O)N2` was 3.2 Celsius; that for `Nc1ncnc2c1C(I)CN2[C@@H]1O[C@H](CO)C(O)C1O` (some centres not stated) was 4.7 Celsius.
The value for `O=c1c2ccccc2[nH]c(=S)n1CCN1CCC(=C(c2ccc(F)cc2)c2ccc(F)cc2)CC1` was 6.4 Celsius.
The value for `Brc1c(Br)c(Br)c2n[nH]nc2c1Br` was 4.6 Celsius.
